Like-named read-outs stand apart in the source and are kept apart here.
Columns and labels:
[1] = tested on: SJL mice with acute EAE; test: Mouse acute EAE model, daily clinical scoring; type: in vivo
[2] = tested on: luciferase reporter gene; test: Luciferase reporter gene assay for activity of purified mIFN-β protein; type: cell-based
Experimental: Specifically, the gene encoding mIFN-β was cloned into a pCEP4 expression vector (Invitrogen). The expression plasmid encoding mIFN-β was transiently transfected into 293E cells (Edge Biosystems) using X-tremeGene Ro-1539 Transfection Reagent (Roche). Murine IFN-β protein was purified from the medium by ion-exchange chromatography and by hydrophobic-interaction chromatography. The product was sialyzed and concentrated against dilution buffer (50 mM sodium acetate, pH 5.5, 150 mM sodium chloride, and 5% polypropylene glycol) and sterile filtered. Aliquots of the purified protein were stored at −80° C. The activity of the purified protein was assessed using a luciferase reporter gene assay (Hardy et al. (2001) Blood 97:473-482), using a commercial mIFN-β reference standard from Access Biomedical (San Diego, Calif.). The specific activity of the purified protein was 2×10^8 units/mg.
The positive control used for this study was Prednisolone, 2.5 mg/kg, (Sigma, St. Louis) administered by IP injection twice daily, beginning on day 1, until the end of the study. For mIFN-β protein delivery, the mice were given SC injections of purified recombinant mIFN-β protein every other day, starting on day 1 of the study (100,000 or 300,000 IU per animal per injection in 100 ul vehicle buffer). […]

[3] = tested on: JE; test: JE chemokine level in plasma of treated mice by ELISA; type: in vivo; details: bolus protein, each of three doses
Experimental: FIG. 7 illustrates induction levels of IP-10 (A) and JE (B) following i.v. or i.m. injection of murine IFN-β protein. C57BL/6 mice were administered 15, 150, or 500 ng of purified recombinant mIFN-β protein (specific activity=2.0×10^8 units/mg) by either i.v. (via tail vein) or i.m. injection (n=3 mice per group). The mice were bled at 2, 4, 6, 12, 24, and 48 hours post-injection, and the plasma levels of IP-10 and JE were measured by ELISA (R&D Systems).
FIG. 19 illustrates IP-10 and JE induction with a pBRES mIFN-β regulated expression system of the present invention.
• A. Development of mIFN-β Biomarkers: For higher sensitivity in detection of murine IFN-β (mIFN-β) activity in vivo, biomarkers for mIFN-β activity were identified in mice after injection of mIFN-β protein or mIFN-β encoded gene therapy vectors. […] In the present study, the expression of the MxA mouse homologue, Mx1, (see e.g., Hug, H et al. Mol Cell Biol 8: 3065-79; Pavlovic, J (1993) Ciba Found Symp 176: 233-43) isolated from murine peripheral blood monocytes (PBMC's) was used to detect the presence of biologically active mIFN-β. • A quantitative PCR/RT-PCR assay was developed to quantitate the levels of Mx1 mRNA in murine PBMC's. […] The samples were analyzed with an Mx1-specific probe/primer combination. […] The highest Mx1 expression levels were measured 2 hours after injection. […]

[4] = tested on: Mx1 RNA; test: Mx1 RNA induction in PBMCs of treated mice (quantitative RT-PCR, normalized to GAPDH); type: in vivo
Experimental: FIG. 6 illustrates Mx1 RNA induction following i.v. (A) or i.m. injection (B) of mIFN-β protein. C57BL/6 mice were administered 15, 150, or 500 ng of purified recombinant mIFN-β protein (specific activity-2.0×10^8 units/mg) by either i.v. (via tail vein) or i.m. injection (n=3 mice per group). At the specified time points post-injection mice were bled, and RNA was isolated from PBMCs. Mx1 RNA was measured by quantitative RT-PCR. The fold increase in Mx1 RNA is expressed relative to GAPDH values measured in the same samples. The controls include naive mice (N), and mice injected with the vehicle buffer only followed by Mx1 analysis at 2 hours (V2 h) or 4 h (V4 h) post-injection. Each column represents the mean value +/− standard deviation.

Substance: mIFN-β: purified recombinant murine interferon-beta protein
- clinical scores of EAE compared to vehicle treated mice ([1]; 30,000 units s.c. every other day, first study): did not reach statistical significance
- clinical scores of EAE compared to vehicle control ([1]; 100,000 Units s.c. every other day, second study (FIG. 12)): significantly decreased clinical scores
- severity of the disease (clinical scores) compared to vehicle treated animals ([1]; 100,000 or 300,000 units SC every other day, 25 day study (FIG. 39A)): significantly reduced the severity of the disease
- clinical scores of EAE compared with vehicle treated mice ([1]; 100,000 units s.c. every other day, first study (FIG. 11)): significantly decreased clinical scores
- specific activity of the purified protein [2]: 2×10^8 international units (IU) per mg
- specific activity of the purified protein ([2]; commercial mIFN-β reference standard): 2×10^8 units/mg
- time by which plasma JE dropped to background [3]: ≤ 24 h
- time after injection beyond which no Mx1 RNA levels above background were detected ([4]; bolus protein): 12 h
- Induction of Mx1 RNA expression relative to vehicle injected mice ([4]; bolus protein 15, 150 or 500 ng, i.v. or i.m.): 25- to 50 fold
- Tmax of induction of all three biomarkers (Mx1, IP-10, JE) ([4]; bolus protein i.v. or i.m.): approximately 2 hours
- time after injection of highest Mx1 expression levels ([4]; bolus protein i.v. or i.m.): 2 h
- time post-injection within which biomarker levels dropped to background ([4]; bolus protein i.v. or i.m.): 12 to 24 h
- dose giving highest Mx1 induction ([4]; i.v. injection, diminished at 500 ng): 150 ng

From patent US20080076729A1, “Interferon-beta gene therapy using an improved, regulated expression system” (Schering Aktiengesellachaft, priority 2005, published 2008)
